Experiments:
[1] = Effect of composition on pH of surrounding tap water; format: physicochemical; details: 4 ppm iron; tap water alone 6.93
Excerpt: Since the pH of water is an important factor in biology for microorganism growth and survival, experiments were undertaken to determine what effect the compositions had on the pH of surrounding water.
The effects of 4 ppm iron-loaded composition (“Fe—WP”), iron chloride and iron sulfate on the pH of tap water was examined. […] However, the same amount of iron with sources of iron chloride and iron sulfate reduced the pH of tap water within a range of 1.6-2.9 units.

mung bean plants = assay: Plant growth study with salts or compositions comprising zinc or manganese on wood pulp in soil at elevated concentrations; format: in vivo
Procedure: Mung bean seeds were planted in 2 g of sterile sunshine mix soil in autoclaved jars. […] The wood pulp, acting as the carrier, was Canfor 350/70-1 (carrier C from Table 1). […] The root length was measured from start of roots to longest root tip. […] The plants to be used in the presence of compositions as disclosed herein were sowed in 2 g of sunshine mix to which 0.1 g of the composition was added, made of various concentrations of zinc or manganese. These were all watered with 5 mL deionized water. The beans grew in this treatment for 9 further days.

Compound | PH of tap water [1] | toxicity for mung bean plants (mung bean plants; 2000 ppm in soil) | mung bean stem height and root length growth (mung bean plants; 2000 ppm zinc as salt in soil, 9 days, FIGS. 7(a), 7(b))
iron chloride [FeCl3] | 4.03 | – | –
[Cl-].[Cl-].[Zn+2] [zinc, zinc chloride] | – | exhibits toxicity | reduced stem height and root length growth
O=S(=O)([O-])[O-].O=S(=O)([O-])[O-].O=S(=O)([O-])[O-].[Fe+3].[Fe+3] [Fe2(SO4)3, iron sulfate] | 4.17 | – | –

Source: US11691928B2, “Compositions, systems and methods for delivery of an element in response to biological demand” (Lucent Biosciences, Inc., priority 2018, dated 2023)
